Test results published in patent publication US9504676B2, “Molecules inhibiting a metabolic pathway involving the Syk protein tyrosine kinase and method for identifying said molecules” (CENTRE NATIONAL DE LA RECHERCHE SCIENTIFIQUE, priority 2008, dated 2016).
Converted amounts (≈) assume the structure as drawn.

How the values were obtained:
RBL-2H3 cells = assay: cells; assay type: cell-based, rat; conditions: Rattus norvegicus; RBL-2H3 cells; read-out: Degran. IC50: concentration inhibiting mast cell degranulation by 50%
Experimental: These 87 molecules were also tested in vitro to assess the ability thereof to inhibit RBL-2H3 cell degranulation (see table 1).
(§1) • 1) Chemical products and antibodies. A chemical bank of 3000 molecules (a varied subset) was acquired from ChemBridge, Inc. (San Diego, Calif.). Stocks of solutions of small molecules were prepared at a rate of 10 mM in DMSO (dimethylsulphoxide), except for C-13 (methyl 2-{5-[(3-benzyl-4-oxo-2-thioxo-1,3-thiazolidin-5-ylidene)methyl]-2-furyl}benzoate, ChemBridge ID No. 6197026) prepared in DMF (dimethylformamide). Unless specified otherwise, all the reagents were supplied by Sigma. Dinitrophenyl (DNP) hapten was acquired from Calbiochem. Sepharose GammaBind G and all the secondary antibodies were supplied by GE Health Amersham Biosciences. The anti-Syk, anti-Lyn, anti-Btk, anti-PLC-γ1, anti-PLC-γ2, anti-LAT, anti-SLP-76, anti-p38, anti-JNK, anti-Vav, anti-Akt1 and 9E10 antibodies conjugated with HRP were acquired from Santa Cruz Biotechnology. The anti-phospho-p44/42 MAP Kinase, anti-p44/42 MAP Kinase, anti-phospho-p38, anti-phospho-JNK, anti-phospho-Akt1 antibodies were acquired from Cell Signaling. The anti-phospho-LAT and anti-phospho-PLC-γ1 antibodies were supplied by Biosource and the anti-phospho-SLP-76 antibodies by BD Pharmingen. The 4G10 anti-phosphotyrosine monoclonal antibody was acquired from Upstate Biotechnology. • 2) ADA method: ELISA type high-speed molecule screening test, based on antibody displacement (WO 2005106481). The recombinant fusion protein GST:Syk 6-242^8 comprising the residues 6 to 242 of murine Syk tyrosine kinase protein illustrated in FIG. 8B (SEQ ID No. 4) was immobilised on an ELISA plate at a final concentration of 10 μg ml^−1. For the screening of the chemical molecule bank, the small molecules, diluted in PBS at a final concentration of 10 μM were added to the wells for one hour at ambient temperature, before adding the fragment scFv G4G11 at a final concentration of 100 nM for an additional hour. The binding of G4G11 with Syk was assessed by adding the 9E10 monoclonal antibody conjugated with HRP detecting the amino acid sequence EQKLISEEDLN of human c-myc protein located at the C-terminal end of the scFv fragment. To generate Syk mutants, targeted mutagenesis was used on GST:Syk 6-242 protein and the binding of G4G11 with the mutants was assessed in the presence of 5 μM of C-13. • 3) Cells, culture conditions and functional tests. Anti-DNP 2682-I mouse monoclonal antibody was used as the culture supernatant of hybridomas containing 1 μg/ml of IgE. Femoral bone marrow cells were sampled and cultured in Opti-MEM medium (Gibco) supplemented with 10% foetal calf serum and 4% X63 transfectant supernatant secreting murine IL-3. RBL-2H3 (ATCC) leukaemic rat basophil cells were maintained in a single-layer culture in RPMI 1640 medium supplemented with 10% foetal calf serum (Gibco). Measurements of β-hexosaminidase released by the RBL-2H3 cells were performed as described previously^7, except that, after 12-16 hours of incubation with anti-DNP IgE (0.5 μg/ml), the cells were incubated for 90 min at 37° C. in RPMI medium supplemented with the specified concentrations of C-13 or DMF (0.25%). The cells were stimulated for 45 min with DNP-BSA (50 ng ml^−1) or ionomycin (1.5 μM). The BMMC cells were incubated for one hour at 37° C. with anti-DNP IgE (100 ng/ml). They were then incubated with C-13 (3 μM) or DMF (0.3%) for 3 hours at 37° C., and stimulated with varied concentrations of DNP-BSA. The level of β-hexosaminidase released was measured 10 min later and the TNF-α titration was performed by means of a cytotoxicity test on L929 cells as described previously^10, 3 hours after stimulation. The results illustrated in FIG. 3 are representative of three independent experiments. • 4) Immunoprecipitations, in vitro kinase assays and immunodetection. […]

[1] = target: T1, murine Syk tyrosine kinase protein (GST:Syk 6-242) (Mus musculus, UniProt P48025); assay: ADA method: displacement of the binding of scFv G4G11 with Syk (ELISA); conditions: small molecules at 10 μM, scFv G4G11 100 nM; read-out: In vit. inhib.: mean inhibition % of the binding of scFv G4G11 with Syk in the ADA method
T1 construct: made in house
Text: The term “percentage of inhibition” of the binding of an antibody or antibody fragment with Syk protein, particularly refers to the ratio […], where A consists of the intensity of a signal proportional to the quantity of an antibody or antibody fragment bound with Syk protein in the absence of a molecule according to the invention and B the intensity of the same signal in the presence of a molecule according to the invention under the same conditions. […] This test may be performed for example according to the protocol described in example 3-2) hereinafter.
The inventors developed the ADA (Antigen Displacement Assay) method to identify small molecules capable of displacing the association with scFv G4G11 with Syk. […] To understand the mode of action of C-13, the inventors firstly identified the binding site of G4G11 using the SPOT method^16. An epitope located on the N-terminal SH2 domain of Syk, comprising amino acids 65-74 and 100% preserved in mouse, rat and human sequences, was identified.
The ADA method was then applied to each of these […] molecules to measure the ability thereof to inhibit the binding of scFv G4G11 with Syk.
as §1, with “(Gibco).” for “(Gibco). Measurements of β-hexosaminidase released by the RBL-2H3 cells were performed as described previously^7, except that, after 12-16 hours of incubation with anti-DNP IgE (0.5 μg/ml), the cells were incubated for 90 min at 37° C. in RPMI medium supplemented with the specified concentrations of C-13 or DMF (0.25%). The cells were stimulated for 45 min with DNP-BSA (50 ng ml^−1) or ionomycin (1.5 μM). The BMMC cells were incubated for one hour at 37° C. with anti-DNP IgE (100 ng/ml). They were then incubated with C-13 (3 μM) or DMF (0.3%) for 3 hours at 37° C., and stimulated with varied concentrations of DNP-BSA. The level of β-hexosaminidase released was measured 10 min later and the TNF-α titration was performed by means of a cytotoxicity test on L929 cells as described previously^10, 3 hours after stimulation. The results illustrated in FIG. 3 are representative of three independent experiments. • 4) Immunoprecipitations, in vitro kinase assays and immunodetection.”

Row | Structure (SMILES) | IC50 (RBL-2H3 cells) [µg/mL] | inhibition at 10 µM [1] [%]
1 | CC(C)c1ccc(C2C(C(=O)c3ccccc3)=C(O)C(=O)N2CCN2CCOCC2)cc1 (stereo not shown) [Molecule 26] | > 10 | 56.5
2 | COc1cccc2cc(C(=O)C3=C(O)C(=O)N(CCN4CCOCC4)C3c3cccc(Br)c3)oc12 (stereo not shown) [Molecule 85, 5-(3-bromophenyl)-3-hydroxy-4-[(7-methoxy-1-benzofuran-2-yl)carbonyl]-1-[2-(4-morpholinyl)ethyl]-1,5-dihydro-2H-pyrrol-2-one] | ~10 (≈ 18.5 µM) | 18
3 | COc1ccc(C2C(C(=O)c3ccc(C)cc3)=C(O)C(=O)N2CCN2CCOCC2)c(OC)c1 (stereo not shown) [Molecule 34] | > 10 | 50
4 | O=C1c2ccc(Oc3ccc4c(c3)C(=O)N(CC3CCCO3)C4=O)cc2C(=O)N1CC1CCCO1 (stereo not shown) [Molecule 62, 5,5′-oxybis [2-(tetrahydro-2-furanyl methyl)-1H-isoindole-1,3(2H)-dione]] | > 10 | 38.5
5 | COc1ccc(NC(=O)CSc2nc3ccccc3c(=O)n2Cc2ccco2)c(OC)c1 [Molecule 69] | ~5 (≈ 11.1 µM) | 30
6 | Cc1ccc(-n2c3c(cc(C(=O)NC4CC(C)(C)NC(C)(C)C4)c2=O)C(=O)CC(C)(C)C3)cc1 [Molecule 22, 7,7-dimethyl-1-(4-methylphenyl)-2,5-dioxo-N-(2,2,6,6-tetramethyl-4-piperidinyl)-1,2,5,6,7,8-hexahydro-3-quinoline carboxamide] | > 10 | 57.5
7 | COc1ccc(C(=O)C2=C(O)C(=O)N(CCN3CCOCC3)C2c2cccnc2)c(C)c1 (stereo not shown) [Molecule 14, 3-hydroxy-4-(4-methoxy-2-methylbenzoyl)-1-[2-(4-morpholinyl)ethyl]-5-(3-pyridinyl)-1,5-dihydro-2H-pyrrol-2-one] | > 10 | 67.5
8 | COc1ccc(C2C(C(=O)c3cccs3)=C(O)C(=O)N2CCN2CCOCC2)cc1OC (stereo not shown) [Molecule 38, 5-(3,4-dimethoxyphenyl)-3-hydroxy-1-[2-(4-morpholinyl)ethyl]-4-(2-thienylcarbonyl)-1,5-dihydro-2H-pyrrol-2-one] | > 10 | 50
9 | CCOC(=O)c1c(-c2ccccc2)oc2ccc(OC(C(=O)O)c3ccccc3)cc12 (stereo not shown) [Molecule 60, {[3-(ethoxy carbonyl)-2-phenyl-1-benzofuran-5-yl]oxy} (phenyl) acetic acid] | > 10 | 40
10 | COc1ccc(C2C(C(=O)c3ccc(Cl)cc3)=C(O)C(=O)N2CCN2CCOCC2)cc1 (stereo not shown) [Molecule 39, 4-(4-chlorobenzoyl)-3-hydroxy-5-(4-methoxyphenyl)-1-[2-(4-morpholinyl)ethyl]-1,5-dihydro-2H-pyrrol-2-one] | > 10 | 50
11 | COc1cccc(C(=O)N(Cc2cc3ccc(C)cc3nc2C)c2ccccc2OC)c1 [Molecule 70] | > 10 | 30
12 | Cc1ccc(C(=O)C(C)OC(=O)c2ccc3c(c2)C(=O)C(c2ccc(C)c(Cl)c2)C3=O)cc1 (stereo not shown) [Molecule 41] | > 10 | 49.5
13 | COc1ccc(OC)c(C2C(C(=O)c3ccc(F)cc3)=C(O)C(=O)N2CCCN2CCOCC2)c1 (stereo not shown) [Molecule 43, 5-(2,5-dimethoxyphenyl)-4-(4-fluorobenzoyl)-3-hydroxy-1-[3-(4-morpholinyl)propyl]-1,5-dihydro-2H-pyrrol-2-one] | > 10 | 48.5
14 | COc1ccc(C2C(C(=O)c3ccco3)=C(O)C(=O)N2CCN2CCOCC2)cc1OC (stereo not shown) [Molecule 35, 5-(3,4-dimethoxyphenyl)-4-(2-furoyl)-3-hydroxy-1-[2-(4-morpholinyl)ethyl]-1,5-dihydro-2H-pyrrol-2-one] | > 10 | 50
15 | COc1ccc(C)cc1NC(=O)CN(c1ccc(C)cc1)S(=O)(=O)c1ccc(OC)c(OC)c1 [Molecule 42] | > 10 | 49
16 | CC(C)c1ccc(C2C(C(=O)c3ccc(F)cc3)=C(O)C(=O)N2CCCN2CCOCC2)cc1 (stereo not shown) [Molecule 19, 4-(4-fluorobenzoyl)-3-hydroxy-5-(4-isopropylphenyl)-1-[3-(4-morpholinyl)propyl]-1,5-dihydro-2H-pyrrol-2-one] | > 10 | 60
17 | COc1ccc(OC)c(C2C(C(=O)c3ccccc3)=C(O)C(=O)N2CCCn2ccnc2)c1 (stereo not shown) [Molecule 5, 4-benzoyl-5-(2,5-dimethoxyphenyl)-3-hydroxy-1-[3-(1H-imidazol-1-yl)propyl]-1,5-dihydro-2H-pyrrol-2-one] | > 10 | 77.5
